Reference: PMC3481155, “AhR activation underlies the CYP1A autoinduction by A-998679 in rats” (Frontiers in Genetics, 2012)

Assays:
CYP3A4 = biological target: T1, CYP3A4 (Homo sapiens, UniProt P08684); experiment: CYP inhibition evaluation in human liver microsomes, CYP3A4 (midazolam); format: in vitro ADME; details: probe substrate midazolam
T1 construct: from tissue; host or cells: human liver microsomes
Experimental: Incubations were performed in human liver microsomes using probe substrate concentrations similar to their corresponding Km values. Enzyme activity was evaluated in the presence of various concentrations of A-998679. The incubations consisted of the test article at varying concentrations (0–30 μM), probe substrate (concentration ~Km, see Table A2), human liver microsomal protein and 1 mM NADPH in 50 mM phosphate buffer at pH 7.4. Relative quantitation of the metabolites was obtained by LC-MS/MS using an ABSciex (Foster City, CA) API3000 or API4000 Qtrap hybrid linear ion trap mass spectrometer equipped with a TurboIonspray source using either PerkinElmer series 200 pumps or Agilent 1100 series pump with a Leap autosampler. Analytes were separated using a Phenomenex Prodigy ODS(3) 5 μm, 50 × 2.0 mm column at 50°C, eluted and detected under the specific conditions listed in Tables A3, A4, and A5. The analyte to internal standard peak area ratios were determined using Analyst 1.4 software (Applied Biosytems, Carlsbad, CA). The peak area ratios observed in the presence of test article were compared to the vehicle control in order to determine percent activity. To determine the IC50, the data were plotted as Log [dose] μM vs. % inhibition, and analyzed with a sigmoidal dose-response (variable slope) fitting equation. […]

CYP1A2 = CYP1A2 mRNA induction in primary human hepatocytes; format: cell-based; details: 24 h, dose-dependent
Experimental: Rat hepatocytes were isolated in a perfusion procedure as described previously (Elliget and Kolaja, [1983]; Waring et al., [2001]). The beagle dog hepatocytes were isolated in the same manner, except for adjustment of flow rate and buffer volume to scale to liver size. Cells were plated at a seeding density of 1.0 × 10^6 cells per well on 6-well, collagen-type I coated plates (BD Biosciences, Bedford, MA) in hepatocyte plating medium (Celsis, Baltimore, MD). Cells were allowed to attach for 24 h in a 37°C humidified incubator with a 5% CO2 atmosphere and were dosed for 24 h (rat) or 48 h (dog) with vehicle control [0.1% DMSO (v/v)] or 10 μM A-998679 in fresh treatment media (Celsis hepatocyte incubation media) every 24 h. After the last incubation, cells were lysed in 1 ml of Qiazol (Qiagen) and stored at −80°C until RNA isolation. Cryopreserved human hepatocytes (donor designation Hu4198; Invitrogen Life Technologies, Carlsbad, CA) were thawed and plated according to the manufacturer's protocol and allowed to incubate for 24 h. […]
RNA samples were diluted with RNase-free molecular biology grade water to a concentration of 20 ng/μl total RNA. […] Results were analyzed by calculating the fold change of CYP1A1 and/or CYP1A2 mRNA levels normalized to 28S rRNA (ΔΔ Ct) in compound treated cells or tissues compared to vehicle levels. […]

T1 sequence (P08684 whole entry): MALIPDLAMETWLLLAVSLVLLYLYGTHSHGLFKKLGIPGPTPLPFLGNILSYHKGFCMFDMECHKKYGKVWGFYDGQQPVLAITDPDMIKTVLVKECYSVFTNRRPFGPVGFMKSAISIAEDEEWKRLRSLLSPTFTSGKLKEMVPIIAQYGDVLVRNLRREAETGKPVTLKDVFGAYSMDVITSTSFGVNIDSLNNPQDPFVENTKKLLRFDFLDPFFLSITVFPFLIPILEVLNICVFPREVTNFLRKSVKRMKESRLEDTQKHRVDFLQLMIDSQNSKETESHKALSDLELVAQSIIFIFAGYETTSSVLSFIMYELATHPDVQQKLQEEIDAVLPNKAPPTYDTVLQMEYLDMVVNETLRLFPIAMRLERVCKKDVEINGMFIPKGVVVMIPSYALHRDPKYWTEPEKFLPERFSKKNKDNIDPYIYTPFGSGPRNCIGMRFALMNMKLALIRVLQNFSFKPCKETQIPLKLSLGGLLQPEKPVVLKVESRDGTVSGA

IC50 (CYP3A4): > 30 µM
lowest concentration inducing CYP1A2 mRNA (CYP1A2): 3 µM
SMILES: N#Cc1cccc(-c2noc(-c3cccnc3)n2)c1 [A-998679, 3-(5-pyridin-3-yl-1,2,4-oxadiazol-3-yl) benzonitrile]
